Here are results for two molecules from PMC5654082 (Malaria Journal, 2017).

Series [1] deals with T1, MATE1 (Homo sapiens, UniProt Q96FL8).
T1 sequence (Q96FL8 1-570): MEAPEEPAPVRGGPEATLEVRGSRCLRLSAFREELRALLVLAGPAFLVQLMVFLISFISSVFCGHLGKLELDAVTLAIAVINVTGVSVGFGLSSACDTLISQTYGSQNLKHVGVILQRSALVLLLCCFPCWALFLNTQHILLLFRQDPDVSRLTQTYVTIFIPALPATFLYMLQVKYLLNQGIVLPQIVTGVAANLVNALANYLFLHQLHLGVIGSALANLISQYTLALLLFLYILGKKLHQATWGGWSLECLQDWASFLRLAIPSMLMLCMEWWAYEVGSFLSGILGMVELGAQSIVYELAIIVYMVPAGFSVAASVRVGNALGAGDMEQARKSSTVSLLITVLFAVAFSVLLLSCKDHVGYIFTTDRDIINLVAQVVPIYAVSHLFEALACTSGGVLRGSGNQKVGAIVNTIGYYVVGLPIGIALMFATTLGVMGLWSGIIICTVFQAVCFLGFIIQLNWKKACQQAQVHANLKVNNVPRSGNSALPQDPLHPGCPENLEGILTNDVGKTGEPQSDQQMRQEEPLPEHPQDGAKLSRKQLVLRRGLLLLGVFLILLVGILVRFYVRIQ
In words: MATE1-mediated uptake in transduced HEK293 cells. It is filed as cell-based. Details: host or cells: HEK293, baculovirus transduction (CMV promoter), transient. The note with it: 100 µM, 5 min. As to the method:
(§1) HEK293 cells were modified to transiently express (a combination of) human OCT1, OCT2, MATE1, MATE2-K, or eYFP. Briefly, cDNA of the respective genes was cloned downstream of a CMV promoter into a baculovirus, of which passage three was used to transduce HEK293 cells. These cells were seeded in poly-D-lysine coated 24- or 96-wells plates and grown in a 37 °C incubator at 5% CO2. Growth was initiated at ~ 25% confluency using 375 or 125 μL cell and complete medium (DMEM + GlutaMAX™-I supplemented with 10% fetal bovine serum) suspension per well, respectively. […]
(§2) Import and export of PG and cycloguanil (CG) was assessed by single and double transduced HEK293 cells. […] Following the same procedure as for the cellular import assay described above, the import of 100 µM PG and CG was measured after 5 min incubation and data was plotted as mean pmol/mg/min ± SEM. […] Significant reduction in uptake (i.e. export by MATEs) was determined using ln transformation and a one-way repeated measures ANOVA with Dunnet’s post test.
(§3) Anti-malarial concentration in the cell lysates was quantified using an LC–MS/MS system consisting of a UPLC, a binary solvent manager, a vacuum degasser and an autosampler, coupled to a Xevo TQ-S micro triple quadrupole mass spectrometer. […] The peak area of the most abundant product ion was used for quantification.

For series [2], the target named is MATE2-K (Homo sapiens, UniProt Q86VL8). In words: MATE2-K-mediated uptake in transduced HEK293 cells. It is filed as cell-based. Details: host or cells: HEK293, baculovirus transduction (CMV promoter), transient. Conditions: 100 µM, 5 min. The procedure: as §1, §2, §3
MATE2-K, sequence (Q86VL8 1-566 isoform Q86VL8-3): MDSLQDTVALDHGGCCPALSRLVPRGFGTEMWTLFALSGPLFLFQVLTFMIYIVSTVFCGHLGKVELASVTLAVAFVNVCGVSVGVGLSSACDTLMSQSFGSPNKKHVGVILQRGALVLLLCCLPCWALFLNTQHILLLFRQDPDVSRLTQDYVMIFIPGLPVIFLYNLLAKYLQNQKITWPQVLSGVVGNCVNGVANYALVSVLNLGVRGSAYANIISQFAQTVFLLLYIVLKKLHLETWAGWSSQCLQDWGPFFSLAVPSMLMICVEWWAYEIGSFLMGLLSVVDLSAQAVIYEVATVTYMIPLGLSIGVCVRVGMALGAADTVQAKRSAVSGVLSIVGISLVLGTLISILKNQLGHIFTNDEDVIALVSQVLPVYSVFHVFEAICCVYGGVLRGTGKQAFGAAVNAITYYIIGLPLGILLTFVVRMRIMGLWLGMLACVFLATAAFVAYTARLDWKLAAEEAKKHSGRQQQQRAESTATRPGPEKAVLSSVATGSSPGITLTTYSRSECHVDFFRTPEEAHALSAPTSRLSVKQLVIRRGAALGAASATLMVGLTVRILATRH

SMILES strings stand for the structures. Counter-ions that a name gives are not always drawn.

On to `CC1(C)N=C(N)N=C(N)N1c1ccc(Cl)cc1` [Cycloguanil], for which the “Uptake by MATE1” value in series [1] is 40 ± 9 pmol/mg/min. In addition, the “Uptake by MATE2-K” value in series [2] was 56 ± 15 pmol/mg/min.
Consider `[H]/N=C(\N/C(=N/[H])Nc1ccc(Cl)cc1)NC(C)C` [Proguanil, proguanil hydrochloride], for which the “Uptake by MATE1” value in series [1] is listed as 430 ± 110 pmol/mg/min. For the same molecule, the “Uptake by MATE2-K” value in series [2] is 360 ± 90 pmol/mg/min.
